Test results taken from ChEMBL document CHEMBL1201862, “PubChem BioAssay data set” (2004).
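Five concentrations, 48 hours, 96-well plates. GI50 is the concentration that inhibits growth by half.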 Activity calls are given as the source filed them. Cut-off read from the data, not from the text of the source: active = GI50 up to about 1.1 µM and inactive = higher.

What was measured:
Test in all cases: DTP human tumour cell line panel, 48 h
[1] = tested on: SNB-75
[2] = tested on: HCT-15
[3] = tested on: NCI-H522
[4] = tested on: SF-268
[5] = tested on: NCI/ADR-RES
[6] = tested on: EKVX
[7] = tested on: NCI-H460
[8] = tested on: SF-295
[9] = tested on: HCC 2998
[10] = tested on: UACC-257
[11] = tested on: UACC-62
[12] = tested on: SNB-19
[13] = tested on: HOP-18
[14] = tested on: A549
[15] = tested on: OVCAR-3
[16] = tested on: SN12C
[17] = tested on: HCT-116
[18] = tested on: HOP-62
[19] = tested on: SK-MEL-28
[20] = tested on: OVCAR-5

| Compound | GI50 [1] | GI50 [2] [µM] | GI50 [3] | GI50 [4] | GI50 [5] | GI50 [6] | GI50 [7] | GI50 [8] | GI50 [9] | GI50 [10] | GI50 [11] | GI50 [12] | GI50 [13] | GI50 [14] | GI50 [15] | GI50 [16] | GI50 [17] | GI50 [18] | GI50 [19] | GI50 [20] |
| --- | --- | --- | --- | --- | --- | --- | --- | --- | --- | --- | --- | --- | --- | --- | --- | --- | --- | --- | --- | --- |
| C[n+]1ccc(Nc2ccc(NC(=O)c3ccc(Nc4cc[n+](C)c5ccc([N+](=O)[O-])cc45)cc3[N+](=O)[O-])cc2)cc1 | > 57.4 µM (inactive) | 44.8 | 16.6 µM (inactive) | 40.6 µM (inactive) | > 85.7 µM (inactive) | 45.7 µM (inactive) | 25.7 µM (inactive) | 30.4 µM (inactive) | > 100 µM (inactive) | 24.3 µM (inactive) | 26.1 µM (inactive) | > 73.3 µM (inactive) | 20.3 µM (inactive) | 22.5 µM (inactive) | 18.9 µM (inactive) | 57.4 µM (inactive) | 31.1 µM (inactive) | 59.8 µM (inactive) | 25.9 µM (inactive) | – |
| CCN(CC)CCCOC(=O)/C=C/c1c(C)[nH]c(=O)[nH]c1=O | > 625 µM (inactive) | > 625 | > 625 µM (inactive) | > 625 µM (inactive) | > 625 µM (inactive) | > 625 µM (inactive) | > 625 µM (inactive) | 525 µM (inactive) | > 625 µM (inactive) | > 625 µM (inactive) | > 625 µM (inactive) | > 625 µM (inactive) | > 625 µM (inactive) | > 625 µM (inactive) | > 625 µM (inactive) | > 243 µM (inactive) | > 625 µM (inactive) | > 625 µM (inactive) | > 625 µM (inactive) | > 625 µM (inactive) |
| Cc1cc(C)c2c(c1)CC1(Cc3c(C)ccc(C)c3C1=O)C2=O (configuration not stated) | > 100 µM (inactive) | > 100 | > 100 µM (inactive) | > 100 µM (inactive) | > 100 µM (inactive) | > 100 µM (inactive) | > 100 µM (inactive) | > 100 µM (inactive) | > 100 µM (inactive) | > 100 µM (inactive) | > 100 µM (inactive) | > 100 µM (inactive) | – | > 100 µM (inactive) | > 100 µM (inactive) | > 100 µM (inactive) | – | – | > 100 µM (inactive) | > 100 µM (inactive) |
| CNC(=S)N/N=C(/C)CCC/C(C)=N/NC(=S)NC | 29 µM (inactive) | 11 | 0.728 µM (active) | > 35.2 µM (inactive) | > 100 µM (inactive) | 0.778 µM (active) | > 56.9 µM (inactive) | > 100 µM (inactive) | – | > 100 µM (inactive) | > 58.2 µM (inactive) | > 100 µM (inactive) | – | 5.45 µM (inactive) | 0.411 µM (active) | > 74.5 µM (inactive) | – | > 100 µM (inactive) | > 34.6 µM (inactive) | 1 µM (active) |
| CC(C)(CO)NC(=O)c1cccc(C(=O)NC(C)(C)CO)c1Br | 32.3 µM (inactive) | > 100 | – | > 100 µM (inactive) | > 100 µM (inactive) | > 100 µM (inactive) | > 100 µM (inactive) | – | > 100 µM (inactive) | > 100 µM (inactive) | > 100 µM (inactive) | > 100 µM (inactive) | – | > 100 µM (inactive) | – | – | > 100 µM (inactive) | > 100 µM (inactive) | > 100 µM (inactive) | > 100 µM (inactive) |
| CC1(C)O[C@H]2OC(CO)C(OS(C)(=O)=O)[C@H]2O1 (some centres not stated) | > 100 µM (inactive) | > 100 | 48.1 µM (inactive) | > 100 µM (inactive) | > 100 µM (inactive) | > 100 µM (inactive) | > 100 µM (inactive) | > 100 µM (inactive) | > 100 µM (inactive) | > 100 µM (inactive) | > 100 µM (inactive) | > 100 µM (inactive) | – | > 100 µM (inactive) | > 100 µM (inactive) | > 100 µM (inactive) | > 100 µM (inactive) | > 100 µM (inactive) | > 100 µM (inactive) | > 100 µM (inactive) |
| CSc1nc(NC2OC(CO)C(O)C(O)C2O)c(N)c(=O)n1C (configuration not stated) | > 100 µM (inactive) | > 100 | > 100 µM (inactive) | > 100 µM (inactive) | > 100 µM (inactive) | > 100 µM (inactive) | > 100 µM (inactive) | > 100 µM (inactive) | > 100 µM (inactive) | > 100 µM (inactive) | > 100 µM (inactive) | > 100 µM (inactive) | > 100 µM (inactive) | > 100 µM (inactive) | > 100 µM (inactive) | > 100 µM (inactive) | > 100 µM (inactive) | > 100 µM (inactive) | > 100 µM (inactive) | > 100 µM (inactive) |
| CC(=O)C(=O)NC1/C=C(C)\C=C/C(O)C/C=C(C)\C=C/C(O)CC2OC(=O)C1(C)C(=O)C2C (configuration not stated) | > 100 µM (inactive) | > 100 | > 100 µM (inactive) | > 100 µM (inactive) | > 100 µM (inactive) | > 100 µM (inactive) | > 100 µM (inactive) | > 100 µM (inactive) | > 100 µM (inactive) | > 100 µM (inactive) | > 100 µM (inactive) | > 100 µM (inactive) | > 100 µM (inactive) | > 100 µM (inactive) | > 100 µM (inactive) | > 100 µM (inactive) | > 100 µM (inactive) | > 100 µM (inactive) | > 100 µM (inactive) | > 100 µM (inactive) |
| CN(C)CCCNC(=O)c1c(-c2cccnc2)cnc2ccccc12 | 14.9 µM (inactive) | > 100 | > 100 µM (inactive) | > 100 µM (inactive) | > 100 µM (inactive) | > 100 µM (inactive) | > 100 µM (inactive) | > 100 µM (inactive) | > 100 µM (inactive) | > 100 µM (inactive) | > 100 µM (inactive) | > 100 µM (inactive) | – | > 100 µM (inactive) | > 100 µM (inactive) | > 100 µM (inactive) | > 100 µM (inactive) | > 100 µM (inactive) | > 100 µM (inactive) | > 100 µM (inactive) |
| C=C1CC(OC)(C(OC)C(=O)N(C)[C@H]2OCO[C@H]3C2O[C@H](C[C@@H](COC)OC)C(C)(C)C3OC)O[C@H](C)[C@@H]1C (some centres not stated) | 4.4 µM (inactive) | 18 | 11.5 µM (inactive) | 4.6 µM (inactive) | 7.91 µM (inactive) | 17 µM (inactive) | 9.46 µM (inactive) | 7 µM (inactive) | 10.8 µM (inactive) | 11.6 µM (inactive) | 14.5 µM (inactive) | 8.97 µM (inactive) | 25.5 µM (inactive) | 16 µM (inactive) | 10 µM (inactive) | 22.5 µM (inactive) | 9.44 µM (inactive) | > 91.6 µM (inactive) | 8.18 µM (inactive) | 26.7 µM (inactive) |
| NCCCn1c(Cl)nc2ccccc21 | > 100 µM (inactive) | > 100 | > 100 µM (inactive) | > 100 µM (inactive) | > 100 µM (inactive) | > 100 µM (inactive) | > 100 µM (inactive) | > 100 µM (inactive) | > 100 µM (inactive) | – | > 100 µM (inactive) | > 100 µM (inactive) | – | > 100 µM (inactive) | > 100 µM (inactive) | > 100 µM (inactive) | > 100 µM (inactive) | > 100 µM (inactive) | > 100 µM (inactive) | > 100 µM (inactive) |
| O=S(=O)(CCBr)CCBr | 12.8 µM (inactive) | 2.64 | 1.48 µM (inactive) | 3.99 µM (inactive) | 2.17 µM (inactive) | – | 12 µM (inactive) | 15.7 µM (inactive) | 6.95 µM (inactive) | 3.82 µM (inactive) | 2.96 µM (inactive) | 17.6 µM (inactive) | 15 µM (inactive) | 13.9 µM (inactive) | 3.67 µM (inactive) | 9.02 µM (inactive) | 3.37 µM (inactive) | 0.506 µM (active) | 2.67 µM (inactive) | 13.7 µM (inactive) |
| N#CCCN(CCC#N)c1ccc(/C=C2\N=C(c3cc([N+](=O)[O-])ccc3Cl)N(S(=O)(=O)c3ccccc3)C2=O)cc1 | – | > 100 | > 100 µM (inactive) | > 100 µM (inactive) | – | > 100 µM (inactive) | – | > 100 µM (inactive) | > 100 µM (inactive) | – | > 100 µM (inactive) | > 100 µM (inactive) | 37.7 µM (inactive) | > 100 µM (inactive) | > 100 µM (inactive) | > 100 µM (inactive) | > 100 µM (inactive) | > 100 µM (inactive) | > 100 µM (inactive) | > 100 µM (inactive) |
| CSC(=S)N(C)c1nc(N(C)C)s[s+]1 | > 100 µM (inactive) | > 100 | > 100 µM (inactive) | > 100 µM (inactive) | – | > 100 µM (inactive) | > 100 µM (inactive) | > 100 µM (inactive) | > 100 µM (inactive) | > 100 µM (inactive) | > 100 µM (inactive) | > 100 µM (inactive) | > 100 µM (inactive) | 51.5 µM (inactive) | – | > 100 µM (inactive) | > 100 µM (inactive) | > 100 µM (inactive) | > 100 µM (inactive) | > 100 µM (inactive) |
